According to PubChem BioAssay AID328 (DTP/NCI, 2004):
“And” between values parts separate entries of the source, which are not always exact repeats. Equal entries are not always repeated. Inconclusive results and toxic doses are left out.

Test system: BDF1 mice, P388 leukemia ip, median survival T/C
Assay: NCI In Vivo Anticancer Drug Screen. Data for tumor model P388 Leukemia (intraperitoneal) in B6D2F1 (BDF1) mice
Settings: endpoint: median survival time, higher = longer survival
Procedure, shortened: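 Read-out is survival of treated animals expressed relative to the vehicle group, as a T/C ratio.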

[1] = dose: 100.0 mg/kg/injection, schedule: Q04DX003 (ip), vehicle: Klucel (hydroxypropylcellulose) (HPC)
[2] = dose: 200.0 mg/kg/injection, schedule: Q04DX003 (ip), vehicle: Klucel (hydroxypropylcellulose) (HPC)
[3] = dose: 400.0 mg/kg/injection, schedule: Q04DX003 (ip), vehicle: Klucel (hydroxypropylcellulose) (HPC)
[4] = dose: 100.0 mg/kg/injection, schedule: Q01DX009 (ip), vehicle: Klucel (hydroxypropylcellulose) (HPC)

In the case of `O=C(NCCBr)Nc1ccccc1C(F)(F)F`, the T/C [1] is reported as 95 % of control, the T/C [2] is reported as 109 % of control and the T/C [3] is reported as 109 % of control.
`CCOC(=O)C1C2OC(=O)C(C(=O)C2CN(CCCl)CCCl)C1C1CC=C(CC2=CCC(C3C4C(=O)OC(C(CN(CCCl)CCCl)C4=O)C3C(=O)OCC)CC2)CC1` (centres undefined) was tested, and the T/C (dose: 6.25 mg/kg/injection, schedule: Q01DX009 (ip), vehicle: Klucel (hydroxypropylcellulose) (HPC)) was 169 % of control, the T/C (dose: 12.5 mg/kg/injection, schedule: Q01DX009 (ip), vehicle: Klucel (hydroxypropylcellulose) (HPC)) was 165 % of control (2×) and 178 % of control and the T/C (dose: 25.0 mg/kg/injection, schedule: Q01DX009 (ip), vehicle: Klucel (hydroxypropylcellulose) (HPC)) was 176 % of control and 184 % of control and 189 % of control. For the same compound, the T/C (dose: 50.0 mg/kg/injection, schedule: Q01DX009 (ip), vehicle: Klucel (hydroxypropylcellulose) (HPC)) was 184 % of control and 208 % of control and 215 % of control and the T/C [4] was 265 % of control and 291 % of control and 109 % of control.
With `C(=NC12CC3CC(CC(C3)C1)C2)c1ccccc1` the T/C (dose: 25.0 mg/kg/injection, schedule: Q04DX003 (ip), vehicle: saline) was 105 % of control, the T/C (dose: 50.0 mg/kg/injection, schedule: Q04DX003 (ip), vehicle: saline) was 99 % of control and the T/C (dose: 100.0 mg/kg/injection, schedule: Q04DX003 (ip), vehicle: saline) was 107 % of control. For the same compound, the T/C (dose: 200.0 mg/kg/injection, schedule: Q04DX003 (ip), vehicle: saline) was 105 % of control.
`NC(=S)N/N=C/C(=N\NC(N)=S)C(O)C(O)C(O)CO` (centres undefined) was tested, and the T/C (dose: 25.0 mg/kg/injection, schedule: Q01DX009 (ip), vehicle: saline with Tween-80) was 100 % of control, the T/C (dose: 50.0 mg/kg/injection, schedule: Q01DX009 (ip), vehicle: saline with Tween-80) was 95 % of control and the T/C (dose: 100.0 mg/kg/injection, schedule: Q01DX009 (ip), vehicle: saline with Tween-80) was 100 % of control. For the same compound, the T/C (dose: 100.0 mg/kg/injection, schedule: Q04DX003 (ip), vehicle: saline sonified) was 100 % of control.
In the case of `Cc1ccc(NC(=O)c2ccc(Cl)cc2)cc1`, the T/C [4] is reported as 100 % of control, the T/C [1] is reported as 108 % of control and the T/C (dose: 200.0 mg/kg/injection, schedule: Q01DX009 (ip), vehicle: Klucel (hydroxypropylcellulose) (HPC)) is reported as 109 % of control. The T/C [2] was 104 % of control, the T/C (dose: 400.0 mg/kg/injection, schedule: Q01DX009 (ip), vehicle: Klucel (hydroxypropylcellulose) (HPC)) was 90 % of control and the T/C [3] was 104 % of control.
With `Cc1ccc(NCN2C(=O)NC(c3ccccc3)(c3ccccc3)C2=O)cc1` the T/C (dose: 100.0 mg/kg/injection, schedule: Q01DX001 (ip), vehicle: saline with Tween-80) was 90 % of control and the T/C (dose: 200.0 mg/kg/injection, schedule: Q01DX001 (ip), vehicle: saline with Tween-80) was 95 % of control.
